Like-named read-outs stand apart in the source and are kept apart here. Starred links: 1 amine or outer side, 2 acyl side, 3 side chain; linkers in the order of their positions; H or OH if unused. Positions of bridges follow the written chain, without caps; N, C: chain ends. Non-standard residues stand in square brackets, D forms with d. Residues, ends and D or L forms follow the SMILES beside them. *: point of attachment. X13 = O=C(O)c1ccc(-n2cc(C[C@H](N[*:1])C(=O)[*:2])c3ccccc32)cc1; Phe(3-OCH2COOH) = N[C@@H](Cc1cccc(OCC(=O)O)c1)C(=O)O; Phe(3-CONH2) = NC(=O)c1cccc(C[C@H](N)C(=O)O)c1; Phe(4-COOH) = N[C@@H](Cc1ccc(C(=O)O)cc1)C(=O)O; Trp(7-aza) = N[C@@H](Cc1c[nH]c2ncccc12)C(=O)O; Gly(N(CH2)3COOH) = O=C(O)CCCNCC(=O)O; Gly(octyl) = CCCCCCCC[C@H](N)C(=O)O; X1 = CCCCCCC[C@H](N[*:1])C(=O)[*:2]; NMeF = CN[C@@H](Cc1ccccc1)C(=O)O; Carboxymethyl = O=C(O)C*; NMeA = CN[C@@H](C)C(=O)O; Sar = CNCC(=O)O
Tests used:
Assay type in all cases: cell-based
GDF-11 = target: T1, GDF-11 (Homo sapiens, UniProt O95390); assay: Reporter gene assay for myostatin signaling in HepG2 cell line, Evaluation Procedure (1), GDF-11 inhibition; conditions: read-out: IC50 (Luciferase) GDF-11 HepG2
T1 construct: purchased R&D systems 1958-GD-G8/CF
T1 sequence (O95390 299-407): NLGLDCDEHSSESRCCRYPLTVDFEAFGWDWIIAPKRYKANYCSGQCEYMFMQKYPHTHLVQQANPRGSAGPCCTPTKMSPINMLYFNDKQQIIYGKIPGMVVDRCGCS
Outline: (§1)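 HepG2 cells transfected with pGL3(CAGA)12-luciferase reporter, serum-starved in 0.1% BSA medium, then stimulated with myostatin or GDF-11 plus 4-fold peptide dilutions (0.006–100 nmol/L for myostatin, 0.12–2000 nmol/L for GDF-11) for 20–24 h at 37 °C. Luminescence read with One-Glo; IC50 calculated.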

Myostatin [1] = target: T2, Myostatin (Homo sapiens, UniProt O14793); assay: Reporter gene assay for myostatin signaling in HepG2 cell line, Evaluation Procedure (1), myostatin inhibition; conditions: read-out: IC50 (Luciferase) Myostatin HepG2
T2 construct: active myostatin (also called mature myostatin) is a homodimer consisting of two C-terminal growth factor domains; purchased R&D systems 788-G8/CF
T2 sequence (O14793 267-375): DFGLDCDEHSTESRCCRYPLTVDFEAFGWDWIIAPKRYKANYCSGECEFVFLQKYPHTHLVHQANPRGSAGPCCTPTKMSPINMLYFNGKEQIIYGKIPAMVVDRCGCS
Outline: as §1

Myostatin [2] = assay: as above; conditions: GDF-11 IC50 versus Myostatin IC50
Outline: as §1

Structure (SMILES) | IC50 (GDF-11; Method D: GDF-11 1.5 ng/mL) [nM] | IC50 (Myostatin [1]; Method D: Myostatin 1.5 ng/mL) [nM] | Selectivity (Myostatin [2]; Method D) | IC50 (GDF-11; Method A: GDF-11 10 ng/mL) [nM] | IC50 (Myostatin [1]; Method A: Myostatin 10 ng/mL) [nM] | Selectivity (Myostatin [2]; Method A)
CCCCCCC[C@@H]1NC(=O)[C@H](Cc2ccccc2)N(C)C(=O)[C@H](CCCNC(=N)N)NC(=O)[C@H](Cc2ccc(C(=O)O)cc2)NC(=O)[C@H](Cc2cccc(OCC(=O)O)c2)NC(=O)[C@H](C)N(C)C(=O)[C@H]([C@@H](C)CC)NC(=O)[C@H](Cc2ccccc2)N(C)C(=O)[C@H](Cc2ccc(O)cc2)NC(=O)[C@H](Cc2cn(-c3ccc(C(=O)O)cc3)c3ccccc23)NC(=O)[C@H](C)NC(=O)CN(CCCC(=O)O)C(=O)CSC[C@H](C(=O)O)NC(=O)[C@H](Cc2ccccc2)N(C)C(=O)[C@H](C)N(C)C1=O [Myostatin_99_v372] ({CH2CO}-[Gly(N(CH2)3COOH)]A[X13]Y[NMeF]I[NMeA][Phe(3-OCH2COOH)][Phe(4-COOH)]R[NMeF][X1][NMeA][NMeF][dC]-OH; thioether N-15) | 7.08 | 0.09 | 76.611 |  |  | 
CC[C@H](C)[C@@H]1NC(=O)[C@H](Cc2ccccc2)N(C)C(=O)[C@H](Cc2ccc(O)cc2)NC(=O)[C@H](Cc2c[nH]c3ncccc23)NC(=O)[C@H](C)NC(=O)CN(CCCC(=O)O)C(=O)CSC[C@H](C(=O)O)NC(=O)[C@H](Cc2ccccc2)N(C)C(=O)[C@H](C)N(C)C(=O)[C@H](CC(C)C)NC(=O)[C@H](Cc2ccccc2)N(C)C(=O)[C@H](CCCNC(=N)N)NC(=O)[C@H](Cc2cccc(C(N)=O)c2)NC(=O)[C@H](Cc2ccccc2)NC(=O)CN(C)C1=O [Myostatin_99_v45] ({CH2CO}-[Gly(N(CH2)3COOH)]A[Trp(7-aza)]Y[NMeF]I[Sar]F[Phe(3-CONH2)]R[NMeF]L[NMeA][NMeF][dC]-OH; thioether N-15) |  |  |  | 332 | 12.8 | 26
CCCCCCC[C@@H]1NC(=O)[C@H](Cc2ccccc2)N(C)C(=O)[C@H](CCCNC(=N)N)NC(=O)[C@H](Cc2ccc(C(=O)O)cc2)NC(=O)[C@H](Cc2cccc(OCC(=O)O)c2)NC(=O)[C@H](C)N(C)C(=O)[C@H]([C@@H](C)CC)NC(=O)[C@H](Cc2ccccc2)N(C)C(=O)[C@H](Cc2ccc(O)cc2)NC(=O)[C@H](Cc2c[nH]c3ccccc23)NC(=O)[C@H](C)NC(=O)CN(CCCC(=O)O)C(=O)CSC[C@H](C(N)=O)NC(=O)[C@H](Cc2ccccc2)N(C)C(=O)[C@H](C)N(C)C1=O [Myostatin_99_v196] ({CH2CO}-[Gly(N(CH2)3COOH)]AWY[NMeF]I[NMeA][Phe(3-OCH2COOH)][Phe(4-COOH)]R[NMeF][X1][NMeA][NMeF][dC]-NH2; thioether N-15) |  |  |  | 603 | 3.4 | 177
CCCCCCCC[C@@H]1NC(=O)[C@H](Cc2ccccc2)N(C)C(=O)[C@H](CCCNC(=N)N)NC(=O)[C@H](Cc2ccc(C(=O)O)cc2)NC(=O)[C@H](Cc2cccc(OCC(=O)O)c2)NC(=O)[C@H](C)N(C)C(=O)[C@H]([C@@H](C)CC)NC(=O)[C@H](Cc2ccccc2)N(C)C(=O)[C@H](Cc2ccc(O)cc2)NC(=O)[C@H](Cc2c[nH]c3ccccc23)NC(=O)[C@H](C)NC(=O)CN(CCCC(=O)O)C(=O)CSC[C@H](C(=O)O)NC(=O)[C@H](Cc2ccccc2)N(C)C(=O)[C@H](C)N(C)C1=O [Myostatin_99_v199] ({CH2CO}-[Gly(N(CH2)3COOH)]AWY[NMeF]I[NMeA][Phe(3-OCH2COOH)][Phe(4-COOH)]R[NMeF][Gly(octyl)][NMeA][NMeF][dC]-OH; thioether N-15) |  |  |  | 159 | 1.2 | 133
CCCCCCC[C@@H]1NC(=O)[C@H](Cc2ccccc2)N(C)C(=O)[C@H](CCCNC(=N)N)NC(=O)[C@H](Cc2ccc(C(=O)O)cc2)NC(=O)[C@H](Cc2ccc(O)cc2)NC(=O)CN(C)C(=O)[C@H]([C@@H](C)CC)NC(=O)[C@H](Cc2ccccc2)N(C)C(=O)[C@H](Cc2ccc(O)cc2)NC(=O)[C@H](Cc2c[nH]c3ccccc23)NC(=O)[C@H](C)NC(=O)[C@H](C)NC(=O)CSC[C@H](C(=O)O)NC(=O)[C@H](Cc2ccccc2)N(C)C(=O)[C@H](C)N(C)C1=O [Myostatin_99_v193] ({CH2CO}-AAWY[NMeF]I[Sar]Y[Phe(4-COOH)]R[NMeF][X1][NMeA][NMeF][dC]-OH; thioether N-15) |  |  |  | 57 | 1 | 57
CCCCCCC[C@@H]1NC(=O)[C@H](Cc2ccccc2)N(C)C(=O)[C@H](CCCNC(=N)N)NC(=O)[C@H](Cc2ccc(OCC(=O)O)cc2)NC(=O)[C@H](Cc2cccc(OCC(=O)O)c2)NC(=O)[C@H](C)N(C)C(=O)[C@H]([C@@H](C)CC)NC(=O)[C@H](Cc2ccccc2)N(C)C(=O)[C@H](Cc2ccc(O)cc2)NC(=O)[C@H](Cc2c[nH]c3ccccc23)NC(=O)[C@H](C)NC(=O)CN(CCCC(=O)O)C(=O)CSC[C@H](C(=O)O)NC(=O)[C@H](Cc2ccccc2)N(C)C(=O)[C@H](C)N(C)C1=O [Myostatin_99_v150] ({CH2CO}-[Gly(N(CH2)3COOH)]AWY[NMeF]I[NMeA][Phe(3-OCH2COOH)]Y(Carboxymethyl)R[NMeF][X1][NMeA][NMeF][dC]-OH; thioether N-15) |  |  |  | 395 | 1.7 | 232

Reference: patent EP4786487A1, “PEPTIDE” (Peptidream Inc, priority 2023, dated 2025)
